Patent US11807693B2 (priority 2014, dated 2023)
pEC50: −log10 of the molar value. Starred links: 1 amine or outer side, 2 acyl side, 3 side chain; linkers in the order of their positions; H or OH if unused. Non-standard residues stand in square brackets, D forms with d. Residues, ends and D or L forms follow the SMILES beside them. *: point of attachment. dBip = N[C@H](Cc1ccc(-c2ccccc2)cc1)C(=O)O; Oic = O=C(O)[C@@H]1C[C@@H]2CCCC[C@@H]2N1; Phe(4-Cl) = N[C@@H](Cc1ccc(Cl)cc1)C(=O)O; dPhe(4-Cl) = N[C@H](Cc1ccc(Cl)cc1)C(=O)O; Phe(4-I) = N[C@@H](Cc1ccc(I)cc1)C(=O)O; γGlu = O=C(O)[C@H](CCC(=O)[*:2])N[*:1]; 1Nal = N[C@@H](Cc1cccc2ccccc12)C(=O)O; NMehArg = CN[C@@H](CCCCNC(=N)N)C(=O)O; HOOC(CH2)8CO = O=C(O)CCCCCCCCC(=O)*; NMeR = CN[C@@H](CCCNC(=N)N)C(=O)O; Tridecanoyl = CCCCCCCCCCCCC(=O)*; hArg = N=C(N)NCCCC[C@H](N)C(=O)O; Cha = N[C@@H](CC1CCCCC1)C(=O)O; NMeL = CN[C@@H](CC(C)C)C(=O)O; Tle = CC(C)(C)[C@H](N)C(=O)O; αMeP = C[C@@]1(C(=O)O)CCCN1; Pip = O=C(O)[C@@H]1CCCCN1; Nle = CCCC[C@H](N)C(=O)O; AEEA = NCCOCCOCC(=O)O; Aib = CC(C)(N)C(=O)O; βAla = NCCC(=O)O

These molecules were tested against T1, human APJ receptor (Homo sapiens, UniProt P35414) (assay: [35S] GTPγS assay, human APJ receptor). Conditions: Table 16.
T1 construct: expressed in transfected cells
T1 sequence (P35414 1-380): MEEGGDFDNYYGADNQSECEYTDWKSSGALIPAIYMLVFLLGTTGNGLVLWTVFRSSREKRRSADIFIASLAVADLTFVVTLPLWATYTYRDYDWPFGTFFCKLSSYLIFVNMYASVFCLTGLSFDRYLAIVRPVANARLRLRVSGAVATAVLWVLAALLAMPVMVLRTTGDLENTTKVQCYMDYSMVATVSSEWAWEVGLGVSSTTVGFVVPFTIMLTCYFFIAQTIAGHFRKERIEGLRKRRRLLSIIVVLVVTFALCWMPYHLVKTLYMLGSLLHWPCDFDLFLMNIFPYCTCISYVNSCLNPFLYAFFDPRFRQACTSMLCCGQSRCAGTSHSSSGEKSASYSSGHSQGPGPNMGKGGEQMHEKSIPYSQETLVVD
Format: biochemical
Description: The membranes were incubated with modified peptides in the assay buffer. […] Bound [^35S] GTPγS was separated from free radiolabel by filtration. The filter bound radioactivity was determined by liquid scintillation counting.
`CCCCCCCCCCCCC(=O)N[C@@H](CCC(=O)NCCOCCOCC(=O)NCCOCCOCC(=O)N[C@H](CCC(N)=O)C(=O)N[C@@H](CCCCNC(=N)N)C(=O)N1CCC[C@H]1C(=O)N(C)[C@@H](CCCNC(=N)N)C(=O)N[C@@H](CC1CCCCC1)C(=O)N[C@@H](CO)C(=O)N[C@@H](Cc1c[nH]cn1)C(=O)N[C@@H](CCCCN)C(=O)NCCC(=O)N1[C@H](C(=O)N[C@@H](CCCC)C(=O)N2CCC[C@H]2C(=O)N[C@H](Cc2ccc(Cl)cc2)C(=O)O)C[C@@H]2CCCC[C@@H]21)C(=O)O` [compound 294] ({Tridecanoyl-γGlu-AEEA-AEEA}-[dQ][hArg]P[NMeR][Cha]SHK[βAla][Oic][Nle]P[dPhe(4-Cl)]-OH) showed a pEC50 of under 5.38.
With `CCCCCCCCCCCCC(=O)N[C@@H](CCC(=O)NCCOCCOCC(=O)NCCOCCOCC(=O)N[C@@H](CCCNC(=N)N)C(=O)N[C@@H](CCC(N)=O)C(=O)N[C@@H](CCCNC(=N)N)C(=O)N1CCC[C@H]1C(=O)N[C@@H](CCCCN)C(=O)N[C@@H](CC1CCCCC1)C(=O)N[C@@H](C)C(=O)N[C@@H](C)C(=O)N[C@@H](CCCC)C(=O)NCC(=O)N1[C@H](C(=O)N[C@@H](CCCC)C(=O)N2CCC[C@H]2C(=O)N[C@@H](Cc2ccc(Cl)cc2)C(=O)O)C[C@@H]2CCCC[C@@H]21)C(=O)O` [compound 346] ({Tridecanoyl-γGlu-AEEA-AEEA}-RQRPK[Cha]AA[Nle]G[Oic][Nle]P[Phe(4-Cl)]-OH) the pEC50 was 8.56.
`CCCCCCCCCCCCC(=O)N[C@@H](CCC(=O)NCCOCCOCC(=O)NCCOCCOCC(=O)N[C@H](CCC(N)=O)C(=O)N[C@@H](CCCCNC(=N)N)C(=O)N1CCC[C@H]1C(=O)N[C@H](CCCNC(=N)N)C(=O)N[C@@H](CC1CCCCC1)C(=O)N[C@@H](CO)C(=O)N[C@@H](Cc1c[nH]cn1)C(=O)N[C@@H](CCCCN)C(=O)NCC(=O)N1[C@H](C(=O)N[C@@H](CCCC)C(=O)N2CCC[C@H]2C(=O)N[C@@H](Cc2cccc3ccccc23)C(=O)O)C[C@@H]2CCCC[C@@H]21)C(=O)O` [compound 367] ({Tridecanoyl-γGlu-AEEA-AEEA}-[dQ][hArg]P[dR][Cha]SHKG[Oic][Nle]P[1Nal]-OH) showed a pEC50 of 7.58.
`CCCCCCCCCCCCC(=O)N[C@@H](CCC(=O)NCCOCCOCC(=O)NCCOCCOCC(=O)N[C@@H](CCC(N)=O)C(=O)N[C@@H](CCCNC(=N)N)C(=O)N1CCC[C@H]1C(=O)N(C)[C@@H](CCCNC(=N)N)C(=O)N[C@@H](CC1CCCCC1)C(=O)N[C@@H](CO)C(=O)N[C@@H](Cc1c[nH]cn1)C(=O)N[C@@H](CCCCN)C(=O)NCC(=O)N1[C@H](C(=O)N[C@@H](CCCC)C(=O)N2CCC[C@H]2C(=O)N[C@H](Cc2ccc(Cl)cc2)C(=O)O)C[C@@H]2CCCC[C@@H]21)C(=O)O` [compound 381] ({Tridecanoyl-γGlu-AEEA-AEEA}-QRP[NMeR][Cha]SHKG[Oic][Nle]P[dPhe(4-Cl)]-OH) gave a pEC50 of 8.21.
For `CCCCCCCCCCCCC(=O)N[C@@H](CCC(=O)NCCOCCOCC(=O)NCCOCCOCC(=O)N[C@@H](CCC(N)=O)C(=O)N[C@@H](CCCCNC(=N)N)C(=O)N1CCC[C@H]1C(=O)N(C)[C@@H](CCCNC(=N)N)C(=O)N[C@@H](CC1CCCCC1)C(=O)N[C@@H](CO)C(=O)N[C@@H](Cc1c[nH]cn1)C(=O)N[C@@H](CCCCN)C(=O)NCC(=O)N1CCC[C@H]1C(=O)N[C@@H](CCCC)C(=O)N1CCC[C@H]1C(=O)N[C@@H](Cc1ccc(Cl)cc1)C(=O)O)C(=O)O` [compound 408] ({Tridecanoyl-γGlu-AEEA-AEEA}-Q[hArg]P[NMeR][Cha]SHKGP[Nle]P[Phe(4-Cl)]-OH), the pEC50 was 10.11.
Molecule `CCCCCCCCCCCCC(=O)N[C@@H](CCC(=O)NCCOCCOCC(=O)NCCOCCOCC(=O)N[C@@H](CCC(N)=O)C(=O)N[C@@H](CCCNC(=N)N)C(=O)N1CCC[C@H]1C(=O)N(C)[C@@H](CCCNC(=N)N)C(=O)N[C@@H](CC1CCCCC1)C(=O)N[C@@H](CO)C(=O)N[C@@H](Cc1c[nH]cn1)C(=O)N[C@@H](CCCCN)C(=O)NCC(=O)N1[C@H](C(=O)N[C@@H](CCCC)C(=O)N[C@@H](Cc2ccc(Cl)cc2)C(=O)O)C[C@@H]2CCCC[C@@H]21)C(=O)O` [compound 409] ({Tridecanoyl-γGlu-AEEA-AEEA}-QRP[NMeR][Cha]SHKG[Oic][Nle][Phe(4-Cl)]-OH) has a pEC50 of 9.00.
With `CCCCCCCCCCCCC(=O)N[C@@H](CCC(=O)NCCOCCOCC(=O)NCCOCCOCC(=O)N[C@@H](CCC(N)=O)C(=O)N[C@@H](CCCNC(=N)N)C(=O)N1CCC[C@H]1C(=O)N(C)[C@@H](CCCNC(=N)N)C(=O)N[C@@H](CC1CCCCC1)C(=O)N[C@@H](CO)C(=O)N[C@@H](C)C(=O)N[C@@H](CCCCN)C(=O)NCC(=O)N1[C@H](C(=O)N[C@@H](CCCC)C(=O)N2CCC[C@H]2C(=O)N[C@@H](Cc2ccc(Cl)cc2)C(=O)O)C[C@@H]2CCCC[C@@H]21)C(=O)O` [compound 419] ({Tridecanoyl-γGlu-AEEA-AEEA}-QRP[NMeR][Cha]SAKG[Oic][Nle]P[Phe(4-Cl)]-OH) the pEC50 was 9.31.
Molecule `CCCCCCCCCCCCC(=O)N[C@@H](CCC(=O)NCCOCCOCC(=O)NCCOCCOCC(=O)N[C@@H](CCC(N)=O)C(=O)N[C@@H](CCCNC(=N)N)C(=O)N1CCC[C@H]1C(=O)N(C)[C@@H](CCCNC(=N)N)C(=O)N[C@@H](CC1CCCCC1)C(=O)N[C@@H](CO)C(=O)N[C@H](C(=O)N[C@@H](CCCCN)C(=O)NCC(=O)N1[C@H](C(=O)N[C@@H](CCCC)C(=O)N2CCC[C@H]2C(=O)N[C@@H](Cc2ccc(Cl)cc2)C(=O)O)C[C@@H]2CCCC[C@@H]21)C(C)(C)C)C(=O)O` [compound 438] ({Tridecanoyl-γGlu-AEEA-AEEA}-QRP[NMeR][Cha]S[Tle]KG[Oic][Nle]P[Phe(4-Cl)]-OH) has a pEC50 of 8.83.
For `CCCCCCCCCCCCC(=O)N[C@@H](CCC(=O)NCCOCCOCC(=O)NCCOCCOCC(=O)N[C@@H](CCC(N)=O)C(=O)N[C@@H](CCCNC(=N)N)C(=O)N1CCCC[C@H]1C(=O)N(C)[C@@H](CCCNC(=N)N)C(=O)N[C@@H](CC1CCCCC1)C(=O)N[C@@H](CO)C(=O)N[C@@H](Cc1c[nH]cn1)C(=O)N[C@@H](CCCCN)C(=O)NCC(=O)N1[C@H](C(=O)N[C@@H](CCCC)C(=O)N2CCC[C@H]2C(=O)N[C@@H](Cc2ccc(Cl)cc2)C(=O)O)C[C@@H]2CCCC[C@@H]21)C(=O)O` [compound 440] ({Tridecanoyl-γGlu-AEEA-AEEA}-QR[Pip][NMeR][Cha]SHKG[Oic][Nle]P[Phe(4-Cl)]-OH), the pEC50 was 8.46.

Same assay, conditions: human APJ receptor
In the case of `CCCC[C@H](NC(=O)[C@@H]1CCCN1C(=O)CNC(=O)[C@H](CCCCN)NC(=O)[C@H](Cc1c[nH]cn1)NC(=O)[C@H](CO)NC(=O)[C@H](CC(C)C)NC(=O)[C@H](CCCCNC(=N)N)N(C)C(=O)[C@H](CCCNC(=N)N)NC(=O)[C@H](CCC(N)=O)NC(C)=O)C(=O)N1CCC[C@H]1C(=O)N[C@@H](Cc1ccc(Cl)cc1)C(=O)O` [compound 73] (Ac-QR[NMehArg]LSHKGP[Nle]P[Phe(4-Cl)]-OH), the pEC50 was 8.74.
Work on `CCCC[C@H](NC(=O)[C@]1(C)CCCN1C(=O)CNC(=O)[C@H](CCCCN)NC(=O)[C@H](Cc1c[nH]cn1)NC(=O)[C@H](CO)NC(=O)[C@H](CC1CCCCC1)NC(=O)[C@H](CCCNC(=N)N)N(C)C(=O)[C@@H]1CCCN1C(=O)[C@H](CCCNC(=N)N)NC(=O)[C@@H](CCC(N)=O)NC(C)=O)C(=O)NC(C)(C)C(=O)N[C@@H](Cc1ccc(Cl)cc1)C(=O)O` [compound 93] (Ac-[dQ]RP[NMeR][Cha]SHKG[αMeP][Nle][Aib][Phe(4-Cl)]-OH) yielded a pEC50 of 9.64.
Work on `CC(C)C[C@@H](C(=O)N[C@@H](CO)C(=O)N[C@@H](Cc1c[nH]cn1)C(=O)N[C@@H](CCCCN)C(=O)NCC(=O)N1[C@H](C(=O)N[C@@H](Cc2ccc(I)cc2)C(=O)N2CCC[C@H]2C(=O)N[C@H](Cc2ccc(-c3ccccc3)cc2)C(=O)O)C[C@@H]2CCCC[C@@H]21)N(C)C(=O)[C@@H](CCCNC(=N)N)NC(=O)[C@@H]1CCCN1C(=O)[C@H](CCCCNC(=N)N)NC(=O)[C@H](CCC(N)=O)NC(=O)COCCOCCNC(=O)COCCOCCNC(=O)CC[C@H](NC(=O)CCCCCCCCC(=O)O)C(=O)O` [compound 288] ({HOOC(CH2)8CO-γGlu-AEEA-AEEA}-Q[hArg]P[dR][NMeL]SHKG[Oic][Phe(4-I)]P[dBip]-OH) yielded a pEC50 of 7.41.
Molecule `CC(C)C[C@@H](C(=O)N[C@@H](CO)C(=O)N[C@@H](Cc1c[nH]cn1)C(=O)N[C@@H](CCCCN)C(=O)NCC(=O)N1[C@H](C(=O)N[C@@H](Cc2ccc(I)cc2)C(=O)N2CCC[C@H]2C(=O)N[C@H](Cc2ccc(-c3ccccc3)cc2)C(=O)O)C[C@@H]2CCCC[C@@H]21)N(C)C(=O)[C@@H](CCCNC(=N)N)NC(=O)[C@@H]1CCCN1C(=O)[C@H](CCCCNC(=N)N)NC(=O)[C@H](CCC(N)=O)NC(=O)[C@@H](CCCNC(=N)N)NC(=O)[C@H](CCCCNC(=N)N)NC(=O)COCCOCCNC(=O)COCCOCCNC(=O)CC[C@H](NC(=O)CCCCCCCCC(=O)O)C(=O)O` [compound 291] has a pEC50 of 8.47.
In the case of `CCCCCCCCCCCCC(=O)N[C@@H](CCC(=O)NCCOCCOCC(=O)NCCOCCOCC(=O)N[C@@H](CCCCNC(=N)N)C(=O)N[C@@H](CCCC)C(=O)N[C@@H](CCC(N)=O)C(=O)N[C@@H](CCCCNC(=N)N)C(=O)N1CCC[C@H]1C(=O)N[C@H](CCCNC(=N)N)C(=O)N(C)[C@@H](CC(C)C)C(=O)N[C@@H](C)C(=O)N[C@@H](Cc1c[nH]cn1)C(=O)N[C@@H](CCCCN)C(=O)NCC(=O)N1[C@H](C(=O)N[C@@H](Cc2ccc(I)cc2)C(=O)N2CCC[C@H]2C(=O)N[C@H](Cc2ccc(-c3ccccc3)cc2)C(=O)O)C[C@@H]2CCCC[C@@H]21)C(=O)O` [compound 321] ({Tridecanoyl-γGlu-AEEA-AEEA}-[hArg][Nle]Q[hArg]P[dR][NMeL]AHKG[Oic][Phe(4-I)]P[dBip]-OH), the pEC50 was 7.75.
In the case of `CCCCCCCCCCCCC(=O)N[C@@H](CCC(=O)NCCOCCOCC(=O)NCCOCCOCC(=O)N[C@@H](CC(N)=O)CC(=O)N[C@@H](CCCNC(=N)N)C(=O)N1CCC[C@H]1C(=O)N(C)[C@@H](CCCNC(=N)N)C(=O)N[C@@H](CC(C)C)C(=O)N[C@@H](CO)C(=O)N[C@@H](Cc1c[nH]cn1)C(=O)N[C@@H](CCCCN)C(=O)NCC(=O)N1CCC[C@H]1C(=O)N[C@@H](CCCC)C(=O)N1CCC[C@H]1C(=O)N[C@@H](Cc1ccc(Cl)cc1)C(=O)O)C(=O)O` [compound 420], the pEC50 was 10.28.
